Laboratory results published in PubChem BioAssay AID2060606 (Molecular Pharmacology Branch, DTP, NCI, 2025).

Test system: 922993-354-T-J3-PDC complex spheroids, viability, % test/control
Experiment: Anticancer human tumor 922993-354-T-J3-PDC patient-derived endometrial carcinoma cell line growth inhibition [CLK]
Details: for IC50: curve of first compound; for viability, T/C: stronger effect = lower value
How it was run: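 Patient-derived tumor cells grown as complex spheroids with HUVEC endothelial cells and mesenchymal stem cells, treated with drug combinations. Concentrations descend in half-log steps from near clinical Cmax, or from 10 microM if Cmax unknown.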
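Note: spheroids exposed to the agents for 7 days before readout.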

NC(=O)C(=Cn1cnc(-c2cc(C(F)(F)F)cc(C(F)(F)F)c2)n1)c1cncnc1 + CNC(=O)c1ccc(Nc2nc(OC3CCCC3)c3c(-c4ccc5nc(C)oc5c4)c[nH]c3n2)c(OC)c1
IC50 (second compound 0.0316 µM): 583 nM
IC50 (second compound 0.1 µM): 467 nM
IC50 (second compound 0.316 µM): 205 nM
IC50 (second compound 1 µM): 48.6 nM
IC50 (second compound 3.16 µM): 44.6 nM
IC50 (second compound 10 µM): 36.4 nM
viability, T/C (second compound 0.0316 µM, first compound 0.00949 µM): 120%
viability, T/C (second compound 0.0316 µM, first compound 0.03 µM): 123%
viability, T/C (second compound 0.0316 µM, first compound 0.0949 µM): 98.3%
viability, T/C (second compound 0.0316 µM, first compound 0.3 µM): 57.7%
viability, T/C (second compound 0.0316 µM, first compound 0.949 µM): 50.4%
viability, T/C (second compound 0.0316 µM, first compound 3 µM): 34.6%
viability, T/C (second compound 0.1 µM, first compound 0.00949 µM): 107%
viability, T/C (second compound 0.1 µM, first compound 0.03 µM): 120%
viability, T/C (second compound 0.1 µM, first compound 0.0949 µM): 102%
viability, T/C (second compound 0.1 µM, first compound 0.3 µM): 54%
viability, T/C (second compound 0.1 µM, first compound 0.949 µM): 49.4%
viability, T/C (second compound 0.1 µM, first compound 3 µM): 36.7%
viability, T/C (second compound 0.316 µM, first compound 0.00949 µM): 81.1%
viability, T/C (second compound 0.316 µM, first compound 0.03 µM): 99%
viability, T/C (second compound 0.316 µM, first compound 0.0949 µM): 71%
viability, T/C (second compound 0.316 µM, first compound 0.3 µM): 37.3%
viability, T/C (second compound 0.316 µM, first compound 0.949 µM): 41.7%
viability, T/C (second compound 0.316 µM, first compound 3 µM): 40.2%
viability, T/C (second compound 1 µM, first compound 0.00949 µM): 56.8%
viability, T/C (second compound 1 µM, first compound 0.03 µM): 63.2%
viability, T/C (second compound 1 µM, first compound 0.0949 µM): 36.2%
viability, T/C (second compound 1 µM, first compound 0.3 µM): 18%
viability, T/C (second compound 1 µM, first compound 0.949 µM): 29%
viability, T/C (second compound 1 µM, first compound 3 µM): 22.2%
viability, T/C (second compound 3.16 µM, first compound 0.00949 µM): 58.8%
viability, T/C (second compound 3.16 µM, first compound 0.03 µM): 67.8%
viability, T/C (second compound 3.16 µM, first compound 0.0949 µM): 24.5%
viability, T/C (second compound 3.16 µM, first compound 0.3 µM): 12.4%
viability, T/C (second compound 3.16 µM, first compound 0.949 µM): 18.9%
viability, T/C (second compound 3.16 µM, first compound 3 µM): 6.38%
viability, T/C (second compound 10 µM, first compound 0.00949 µM): 46.6%
viability, T/C (second compound 10 µM, first compound 0.03 µM): 65.3%
viability, T/C (second compound 10 µM, first compound 0.0949 µM): 20.4%
viability, T/C (second compound 10 µM, first compound 0.3 µM): 8.4%
viability, T/C (second compound 10 µM, first compound 0.949 µM): 11.9%
viability, T/C (second compound 10 µM, first compound 3 µM): 3.1%

CC(CO)NC(=O)c1cc(-c2ccc(Cl)cc2)nn(-c2cnn(C)c2)c1=O (centres undefined) + CN1CCN(c2cc(C(=O)Nc3cc4cc(-c5cnn(C)c5)ccc4cn3)ccn2)CC1
IC50 (second compound 0.0316 µM): > 10000 nM
IC50 (second compound 0.1 µM): > 10000 nM
IC50 (second compound 0.316 µM): < 31.6 nM
IC50 (second compound 1 µM): < 31.6 nM
IC50 (second compound 3.16 µM): < 31.6 nM
IC50 (second compound 10 µM): < 31.6 nM
viability, T/C (second compound 0.0316 µM, first compound 0.0316 µM): 119%
viability, T/C (second compound 0.0316 µM, first compound 0.1 µM): 98.2%
viability, T/C (second compound 0.0316 µM, first compound 0.316 µM): 93.1%
viability, T/C (second compound 0.0316 µM, first compound 1 µM): 98%
viability, T/C (second compound 0.0316 µM, first compound 3.16 µM): 84.8%
viability, T/C (second compound 0.0316 µM, first compound 10 µM): 96%
viability, T/C (second compound 0.1 µM, first compound 0.0316 µM): 95.2%
viability, T/C (second compound 0.1 µM, first compound 0.1 µM): 77.1%
viability, T/C (second compound 0.1 µM, first compound 0.316 µM): 80.8%
viability, T/C (second compound 0.1 µM, first compound 1 µM): 69.5%
viability, T/C (second compound 0.1 µM, first compound 3.16 µM): 77.2%
viability, T/C (second compound 0.1 µM, first compound 10 µM): 72.1%
viability, T/C (second compound 0.316 µM, first compound 0.0316 µM): 47.6%
viability, T/C (second compound 0.316 µM, first compound 0.1 µM): 49.6%
viability, T/C (second compound 0.316 µM, first compound 0.316 µM): 40%
viability, T/C (second compound 0.316 µM, first compound 1 µM): 33.6%
viability, T/C (second compound 0.316 µM, first compound 3.16 µM): 35.3%
viability, T/C (second compound 0.316 µM, first compound 10 µM): 35.9%
viability, T/C (second compound 1 µM, first compound 0.0316 µM): 0.14%
viability, T/C (second compound 1 µM, first compound 0.1 µM): 0.16%
viability, T/C (second compound 1 µM, first compound 0.316 µM): 0.16%
viability, T/C (second compound 1 µM, first compound 1 µM): 0.12%
viability, T/C (second compound 1 µM, first compound 3.16 µM): 0.98%
viability, T/C (second compound 1 µM, first compound 10 µM): 1.3%
viability, T/C (second compound 3.16 µM, first compound 0.0316 µM): 0.15%
viability, T/C (second compound 3.16 µM, first compound 0.1 µM): 0.63%
viability, T/C (second compound 3.16 µM, first compound 0.316 µM): 0.87%
viability, T/C (second compound 3.16 µM, first compound 1 µM): 1.29%
viability, T/C (second compound 3.16 µM, first compound 3.16 µM): 1.41%
viability, T/C (second compound 3.16 µM, first compound 10 µM): 0.14%
viability, T/C (second compound 10 µM, first compound 0.0316 µM): 0.2%
viability, T/C (second compound 10 µM, first compound 0.1 µM): 0.21%
viability, T/C (second compound 10 µM, first compound 0.316 µM): 2%
viability, T/C (second compound 10 µM, first compound 1 µM): 0.26%
viability, T/C (second compound 10 µM, first compound 3.16 µM): 0.7%
viability, T/C (second compound 10 µM, first compound 10 µM): 1.23%
